# Laboratory results: patent US12076443B2, “Preparation method of nanozyme composite-based hybrid hydrogel eye drop” (INSTITUTE OF OPHTHALMOLOGY AFFILIATED TO SHANDONG FIRST …, priority 2022, dated 2024)
# Tests used:
# [1] = test system: P. aeruginosa; conditions: P. aeruginosa isolated from the ocular surface; cited from earlier work
# [2] = test system: P. aeruginosa; test: in vitro antibacterial experiment of TCNH eye drop; format: cell-based, Pseudomonas aeruginosa
# Text: (§1) The TCNH eye drop prepared in the above embodiment was used in in vitro antibacterial experiments for Escherichia coli (E. coli), P. aeruginosa, drug-resistant P. aeruginosa, and Candida albicans (C. albicans) and in vivo prevention and treatment experiments for corneal infections caused by P. aeruginosa and drug-resistant P. aeruginosa.
# (§2) FIG. 4 to FIG. 6 show results of the in vitro antibacterial experiments of the TCNH eye drop.
# [3] = test system: drug-resistant P. aeruginosa; test: in vitro antibacterial experiment of TCNH eye drop; format: cell-based, Pseudomonas aeruginosa
# Text: as §1, §2
# [4] = test system: Candida albicans (C. albicans); test: in vitro antibacterial experiment of TCNH eye drop; format: cell-based
# Text: as §1, §2
# [5] = test system: Escherichia coli (E. coli); test: in vitro antibacterial experiment of TCNH eye drop; format: cell-based
# Text: as §1, §2
# [6] = test system: P. aeruginosa; test: in vivo antibacterial experiment, corneal infection (P. aeruginosa); conditions: FIGS. 7A-7B
# Text: as §1
# [7] = test system: drug-resistant P. aeruginosa strain; test: in vivo antibacterial experiment, corneal infection (drug-resistant P. aeruginosa strain); conditions: FIGS. 8A-8B
# Text: as §1
compound,measurement,setting,value
O=C(O)c1cn(C2CC2)c2cc(N3CCNCC3)c(F)cc2c1=O [ciprofloxacin],average resistance rate of P. aeruginosa to the antibiotic,[1],9%
"OO [H2O2, hydrogen peroxide]",bacterial colonies on plates (plate experiment),[2]; FIG. 4,overgrown with bacteria
same,live bacteria stained green / dead bacteria stained red,[2]; FIG. 5,a large number of live bacteria stained green and a small number of dead bacteria stained red
same,bacterial morphology under a scanning electron microscope,[2]; FIG. 6,regular and intact morphology
same,bacterial colonies on plates (plate experiment),[3]; FIG. 4,overgrown with bacteria
same,live bacteria stained green / dead bacteria stained red,[3]; FIG. 5,a large number of live bacteria stained green and a small number of dead bacteria stained red
same,bacterial morphology under a scanning electron microscope,[3]; FIG. 6,regular and intact morphology
same,bacterial colonies on plates (plate experiment),[4]; FIG. 4,overgrown with bacteria
same,live bacteria stained green / dead bacteria stained red,[4]; FIG. 5,a large number of live bacteria stained green and a small number of dead bacteria stained red
same,bacterial morphology under a scanning electron microscope,[4]; FIG. 6,regular and intact morphology
same,bacterial colonies on plates (plate experiment),[5]; FIG. 4,overgrown with bacteria
same,live bacteria stained green / dead bacteria stained red,[5]; FIG. 5,a large number of live bacteria stained green and a small number of dead bacteria stained red
same,bacterial morphology under a scanning electron microscope,[5]; FIG. 6,regular and intact morphology
same,corneal infection,[6],obviously infected
NC[C@H]1O[C@H](O[C@H]2[C@H](O)[C@@H](O[C@H]3O[C@H](CO)[C@@H](O)[C@H](N)[C@H]3O)[C@H](N)C[C@@H]2N)[C@H](N)C[C@@H]1O [tobramycin],corneal infection,[7],significant infection
gentamicin,corneal infection,[7],significant infection
same,average resistance rate of P. aeruginosa to the antibiotic,[1],22%
CC(C)(O/N=C(\C(=O)N[C@@H]1C(=O)N2C(C(=O)[O-])=C(C[n+]3ccccc3)CS[C@H]12)c1csc(N)n1)C(=O)O [ceftazidime],average resistance rate of P. aeruginosa to the antibiotic,[1],13%
